Experimental data: US10618903B2, “Heteroaryl substituted aminopyridine compounds” (BRISTOL-MYERS SQUIBB COMPANY, priority 2015, dated 2020)

Assays:
[1] = biological target: IRAK4 (Homo sapiens (Human), UniProt Q9NWZ3); experiment: IRAK4 Inhibition Assay; type: biochemical; conditions: ATP 500 μM; IRAK4 0.6 nM
How it was run: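 Enzyme 0.6 nM, ATP 500 μM, FL-peptide 1.5 μM, DMSO 1.6%; HEPES pH 7.2/MgCl2/Brij 35/DTT buffer. RT, 60 min, EDTA stop. Mobility-shift product/substrate ratio; % inhib vs no-enzyme and vehicle controls.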

[2] = test system: IL-6 levels in human whole blood stimulated with a TLR2 agonist; experiment: IRAK4 Whole Blood Assay (lipoteichoic acid/TLR2-stimulated IL-6); type: cell-based; conditions: lipoteichoic acid 10 μg/mL, IL-6 readout
How it was run: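 ACD-A-anticoagulated human whole blood was preincubated with compounds for 60 min at 37 °C under 5% CO2. It was then stimulated with 10 μg/mL lipoteichoic acid (final) in RPMI for 5 h. IL-6 in plasma supernatants was measured by flow cytometry bead assay.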

IRAK4, sequence (Q9NWZ3 whole entry): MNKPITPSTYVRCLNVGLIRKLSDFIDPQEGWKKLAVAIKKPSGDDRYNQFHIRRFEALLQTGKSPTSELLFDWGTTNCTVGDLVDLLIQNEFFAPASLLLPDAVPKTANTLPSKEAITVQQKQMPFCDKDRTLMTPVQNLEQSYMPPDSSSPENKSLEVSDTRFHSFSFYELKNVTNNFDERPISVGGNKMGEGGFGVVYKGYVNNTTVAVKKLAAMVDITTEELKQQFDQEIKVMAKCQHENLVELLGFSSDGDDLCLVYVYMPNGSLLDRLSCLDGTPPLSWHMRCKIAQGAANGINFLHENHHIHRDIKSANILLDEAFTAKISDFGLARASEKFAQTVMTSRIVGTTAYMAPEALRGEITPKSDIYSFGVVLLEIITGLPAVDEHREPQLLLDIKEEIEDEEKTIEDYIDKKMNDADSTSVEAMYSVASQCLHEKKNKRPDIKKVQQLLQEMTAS

Row | IC50 [1] [nM] | EC50 ([2]; Homo sapiens) [nM] | EC50 [2] [nM] | SMILES
1 | 7 | 630 | – | CC(C)(O)[C@H](F)CNC(=O)c1cnc(-c2cnc3cc(C(F)F)cnn23)cc1NC1COC1 [Example 222, (R)-6-(7-(difluoromethyl)imidazo[1,2-b]pyridazin-3-yl)-N-(2-fluoro-3-hydroxy-3-methylbutyl)-4-(oxetan-3-ylamino)nicotinamide]
2 | 13 | 810 | – | COC(=O)N[C@H]1CC[C@H](NC(=O)c2cnc(-c3cnc4cc(C#N)cnn34)cc2NC(C)C)CC1 [Example 223, methyl((1r,4r)-4-(6-(7-cyanoimidazo[1,2-b]pyridazin-3-yl)-4-(isopropylamino)nicotinamido)cyclohexyl)carbamate]
3 | 7 | 570 | – | COC(=O)N[C@H]1CC[C@H](NC(=O)c2cnc(-c3cnc4cc(C#N)cnn34)cc2NC2(C)CC2)CC1 [Example 224, methyl ((1r,4r)-4-(6-(7-cyanoimidazo[1,2-b]pyridazin-3-yl)-4-((1-methylcyclopropyl)amino)nicotinamido)cyclohexyl)carbamate]
4 | 6 | 570 | – | CC(C)n1cc(Nc2cc(-c3cnn4cc(Cl)cnc34)ncc2C(=O)NC[C@@H](F)C(C)(C)O)cn1 [Example 233, (R)-6-(6-chloropyrazolo[1,5-a]pyrimidin-3-yl)-N-(2-fluoro-3-hydroxy-3-methylbutyl)-4-((1-isopropyl-1H-pyrazol-4-yl)amino)nicotinamide]
5 | 3 | 540 | – | CC(C)(O)[C@H](F)CNC(=O)c1cnc(-c2cnn3cc(C#N)cnc23)cc1Nc1cnn(C(F)F)c1 [Example 234, (R)-6-(6-cyanopyrazolo[1,5-a]pyrimidin-3-yl)-4-((1-(difluoromethyl)-1H-pyrazol-4-yl)amino)-N-(2-fluoro-3-hydroxy-3-methylbutyl)nicotinamide]
6 | 2 | – | 690 | CC(C)(O)[C@H](F)CNC(=O)c1cnc(-c2cnn3cc(Cl)cnc23)cc1Nc1cnn(CC(F)(F)F)c1 [Example 237, (R)-6-(6-chloropyrazolo[1,5-a]pyrimidin-3-yl)-N-(2-fluoro-3-hydroxy-3-methylbutyl)-4-((1-(2,2,2-trifluoroethyl)-1H-pyrazol-4-yl)amino)nicotinamide]
7 | 3 | 930 | – | O=C(N[C@H]1CC[C@H](O)CC1)c1cnc(-c2cnn3cc(Cl)cnc23)cc1Nc1cnn(CC(F)F)c1 [Example 252, 6-(6-chloropyrazolo[1,5-a]pyrimidin-3-yl)-4-((1-(2,2-difluoroethyl)-1H-pyrazol-4-yl)amino)-N-((1r,4r)-4-hydroxycyclohexyl) nicotinamide]
8 | 2 | 470 | – | CC(C)(O)[C@H]1CC[C@H](NC(=O)c2cnc(-c3cnn4cc(Cl)cnc34)cc2Nc2cnn(C3CC3)c2)CC1 [Example 254, 6-(6-chloropyrazolo[1,5-a]pyrimidin-3-yl)-4-((1-cyclopropyl-1H-pyrazol-4-yl)amino)-N-((1r,4r)-4-(2-hydroxypropan-2-yl)cyclohexyl)nicotinamide]
9 | 5 | 720 | – | Cn1cc(Nc2cc(-c3cnn4cc(Cl)cnc34)ncc2C(=O)NCCC(C)(C)O)cn1 [Example 255, 6-(6-chloropyrazolo[1,5-a]pyrimidin-3-yl)-N-(3-hydroxy-3-methylbutyl)-4-((1-methyl-1H-pyrazol-4-yl)amino)nicotinamide]
10 | 3 | 790 | – | Cn1cc(Nc2cc(-c3cnn4cc(Cl)cnc34)ncc2C(=O)N[C@H]2CC[C@H](C(C)(C)O)CC2)cn1 [Example 256, 6-(6-chloropyrazolo[1,5-a]pyrimidin-3-yl)-N-((1r,4r)-4-(2-hydroxypropan-2-yl)cyclohexyl)-4-((1-methyl-1H-pyrazol-4-yl)amino)nicotinamide]
11 | 14 | 710 | – | COC(=O)N[C@H]1CC[C@H](NC(=O)c2cnc(-c3cnn4cc(Cl)cnc34)cc2Nc2cnn(C)c2)CC1 [Example 257, methyl ((1r,4r)-4-(6-(6-chloropyrazolo[1,5-a]pyrimidin-3-yl)-4-((1-methyl-1H-pyrazol-4-yl)amino)nicotinamido)cyclohexyl)carbamate]
12 | 2 | 910 | – | CC(C)(O)[C@H]1CC[C@H](NC(=O)c2cnc(-c3cnc4cc(Cl)cnn34)cc2Nc2cnn(CC(F)F)c2)CC1 [Example 264, 6-(7-chloroimidazo[1,2-b]pyridazin-3-yl)-4-((1-(2,2-difluoroethyl)-1H-pyrazol-4-yl)amino)-N-((1r,4r)-4-(2-hydroxypropan-2-yl)cyclohexyl)nicotinamide]
13 | 3 | 960 | – | CC(F)(F)Cn1ccc(Nc2cc(-c3cnc4cc(C#N)cnn34)ncc2C(=O)NC[C@@H](F)C(C)(C)O)n1 [Example 268, (R)-6-(7-cyanoimidazo[1,2-b]pyridazin-3-yl)-4-((1-(2,2-difluoropropyl)-1H-pyrazol-3-yl)amino)-N-(2-fluoro-3-hydroxy-3-methylbutyl)nicotinamide]
14 | 2 | 560 | – | CC(F)(F)Cn1cc(Nc2cc(-c3cnc4cc(C#N)cnn34)ncc2C(=O)NC[C@@H](F)C(C)(C)F)cn1 [Example 269, (R)-6-(7-cyanoimidazo[1,2-b]pyridazin-3-yl)-N-(2,3-difluoro-3-methylbutyl)-4-((1-(2,2-difluoropropyl)-1H-pyrazol-4-yl)amino)nicotinamide]
15 | 4 | 170 | – | Cn1cc(Nc2cc(-c3cnc4cc(Cl)cnn34)ncc2C(=O)NC[C@@H](F)C(C)(C)O)cn1 [Example 271, (R)-6-(7-chloroimidazo[1,2-b]pyridazin-3-yl)-N-(2-fluoro-3-hydroxy-3-methylbutyl)-4-((1-methyl-1H-pyrazol-4-yl)amino)nicotinamide]
16 | 7 | 380 | – | CC(C)(O)[C@H](F)CNC(=O)c1cnc(-c2cnc3cc(C#N)cnn23)cc1Nc1cnn(C(F)F)c1 [Example 273, (R)-6-(7-cyanoimidazo[1,2-b]pyridazin-3-yl)-4-((1-(difluoromethyl)-1H-pyrazol-4-yl)amino)-N-(2-fluoro-3-hydroxy-3-methylbutyl)nicotinamide]
17 | 9 | 590 | – | Cn1cc(Nc2cc(-c3cnc4cc(C#N)cnn34)ncc2C(=O)NC[C@@H](F)C(C)(C)O)cn1 [Example 274, (R)-6-(7-cyanoimidazo[1,2-b]pyridazin-3-yl)-N-(2-fluoro-3-hydroxy-3-methylbutyl)-4-((1-methyl-1H-pyrazol-4-yl)amino)nicotinamide]
18 | 1 | 440 | – | CC(C)(O)[C@H](F)CNC(=O)c1cnc(-c2cnc3cc(Cl)cnn23)cc1Nc1cnn(CC(F)(F)F)c1 [Example 275, (R)-6-(7-chloroimidazo[1,2-b]pyridazin-3-yl)-N-(2-fluoro-3-hydroxy-3-methylbutyl)-4-((1-(2,2,2-trifluoroethyl)-1H-pyrazol-4-yl)amino)nicotinamide]
19 | 2 | 80 | – | CC(C)(O)[C@H](F)CNC(=O)c1cnc(-c2cnc3cc(C#N)cnn23)cc1Nc1cnn(CC(F)(F)F)c1 [Example 276, (R)-6-(7-cyanoimidazo[1,2-b]pyridazin-3-yl)-N-(2-fluoro-3-hydroxy-3-methylbutyl)-4-((1-(2,2,2-trifluoroethyl)-1H-pyrazol-4-yl)amino)nicotinamide]
